According to ChEMBL document CHEMBL4251615, “Discovery of anilino-furo[2,3-d]pyrimidine derivatives as dual inhibitors of EGFR/HER2 tyrosine kinase and their anticancer activity” (Eur J Med Chem, 2018):

Each molecule was assayed on MDA-MB-435 (assay: Growth inhibition of human MDA-MB-435 cells assessed as cell growth at 10 uM incubated for 48 hrs by sulforhodamine B assay relative to control). Conditions: MDA-MB-435, 48 h, read-out: Activity.
Type: functional
For `Cc1oc2ncnc(Nc3ccccc3)c2c1C(=O)NCCO`, the growth at 10 µM was 102%.

These molecules were tested on NCI-H522 (assay: Growth inhibition of human NCI-H522 cells assessed as cell growth at 10 uM incubated for 48 hrs by sulforhodamine B assay relative to control). Conditions: NCI-H522, 48 h, read-out: Activity.
Type: functional
`Cc1oc2ncnc(Nc3ccccc3)c2c1C(=O)NCCO` showed a growth at 10 µM of 96.6%.

Each molecule was assayed on 786-0 (assay: Growth inhibition of human 786-0 cells assessed as cell growth at 10 uM incubated for 48 hrs by sulforhodamine B assay relative to control). Conditions: 786-0, 48 h, read-out: Activity.
Type: functional
For `Cc1oc2ncnc(Nc3ccccc3)c2c1C(=O)NCCO`, the growth at 10 µM was 98.7%.

The molecules below were run on MCF7 (assay: Growth inhibition of human MCF7 cells assessed as cell growth at 10 uM incubated for 48 hrs by sulforhodamine B assay relative to control). Conditions: MCF7, 48 h, read-out: Activity.
Type: functional
Molecule `Cc1oc2ncnc(Nc3ccccc3)c2c1C(=O)NCCO` has a growth at 10 µM of 98.6%.

Each molecule was assayed on MOLT-4 (assay: Growth inhibition of human MOLT4 cells assessed as cell growth at 10 uM incubated for 48 hrs by sulforhodamine B assay relative to control). Conditions: MOLT-4, 48 h, read-out: Activity.
Type: functional
`Cc1oc2ncnc(Nc3ccccc3)c2c1C(=O)NCCO` was tested, and the growth at 10 µM was -0.28%.

Each molecule was assayed on Malme-3M (assay: Growth inhibition of human MALME-3M cells assessed as cell growth at 10 uM incubated for 48 hrs by sulforhodamine B assay relative to control). Conditions: read-out: Activity.
Type: functional
With `Cc1oc2ncnc(Nc3ccccc3)c2c1C(=O)NCCO` the growth at 10 µM was 107%.

These molecules were tested on HCC 2998 (assay: Growth inhibition of human HCC2998 cells assessed as cell growth at 10 uM incubated for 48 hrs by sulforhodamine B assay relative to control). Conditions: HCC 2998, 48 h, read-out: Activity.
Type: functional
In the case of `Cc1oc2ncnc(Nc3ccccc3)c2c1C(=O)NCCO`, the growth at 10 µM is reported as 103%.

Each molecule was assayed on SK-MEL-2 (assay: Growth inhibition of human SK-MEL-2 cells assessed as cell growth at 10 uM incubated for 48 hrs by sulforhodamine B assay relative to control). Conditions: SK-MEL-2, 48 h, read-out: Activity.
Type: functional
Molecule `Cc1oc2ncnc(Nc3ccccc3)c2c1C(=O)NCCO` has a growth at 10 µM of 113%.

The molecules below were run on HOP-92 (assay: Growth inhibition of human HOP92 cells assessed as cell growth at 10 uM incubated for 48 hrs by sulforhodamine B assay relative to control). Conditions: HOP-92, 48 h, read-out: Activity.
Type: functional
`Cc1oc2ncnc(Nc3ccccc3)c2c1C(=O)NCCO` was tested, and the growth at 10 µM was 88.6%.

These molecules were tested on BT-549 (assay: Growth inhibition of human BT549 cells assessed as cell growth at 10 uM incubated for 48 hrs by sulforhodamine B assay relative to control). Conditions: BT-549, 48 h, read-out: Activity.
Type: functional
With `Cc1oc2ncnc(Nc3ccccc3)c2c1C(=O)NCCO` the growth at 10 µM was 90.1%.

These molecules were tested on HT-29 (assay: Growth inhibition of human HT-29 cells assessed as cell growth at 10 uM incubated for 48 hrs by sulforhodamine B assay relative to control). Conditions: HT-29, 48 h, read-out: Activity.
Type: functional
In the case of `Cc1oc2ncnc(Nc3ccccc3)c2c1C(=O)NCCO`, the growth at 10 µM is reported as 106%.

Each molecule was assayed on HL-60(TB) (assay: Growth inhibition of human HL-60(TB) cells assessed as cell growth at 10 uM incubated for 48 hrs by sulforhodamine B assay relative to control). Conditions: HL-60, 48 h, read-out: Activity.
Type: functional
With `Cc1oc2ncnc(Nc3ccccc3)c2c1C(=O)NCCO` the growth at 10 µM was 64.9%.

Each molecule was assayed on MDA-MB-468 (assay: Growth inhibition of human MDA-MB-468 cells assessed as cell growth at 10 uM incubated for 48 hrs by sulforhodamine B assay relative to control). Conditions: MDA-MB-468, 48 h, read-out: Activity.
Type: functional
For `Cc1oc2ncnc(Nc3ccccc3)c2c1C(=O)NCCO`, the growth at 10 µM was 109%.

These molecules were tested on HCT-116 (assay: Growth inhibition of human HCT116 cells assessed as cell growth at 10 uM incubated for 48 hrs by sulforhodamine B assay relative to control). Conditions: HCT-116, 48 h, read-out: Activity.
Type: functional
`Cc1oc2ncnc(Nc3ccccc3)c2c1C(=O)NCCO` gave a growth at 10 µM of 99.3%.

These molecules were tested on OVCAR-4 (assay: Growth inhibition of human OVCAR4 cells assessed as cell growth at 10 uM incubated for 48 hrs by sulforhodamine B assay relative to control). Conditions: OVCAR-4, 48 h, read-out: Activity.
Type: functional
Work on `Cc1oc2ncnc(Nc3ccccc3)c2c1C(=O)NCCO` yielded a growth at 10 µM of 103%.

What follows are molecules tested on ACHN (assay: Growth inhibition of human ACHN cells assessed as cell growth at 10 uM incubated for 48 hrs by sulforhodamine B assay relative to control). Conditions: read-out: Activity.
Type: functional
`Cc1oc2ncnc(Nc3ccccc3)c2c1C(=O)NCCO` was tested, and the growth at 10 µM was 91.8%.

These molecules were tested on SNB-19 (assay: Growth inhibition of human SNB19 cells assessed as cell growth at 10 uM incubated for 48 hrs by sulforhodamine B assay relative to control). Conditions: SNB-19, 48 h, read-out: Activity.
Type: functional
Molecule `Cc1oc2ncnc(Nc3ccccc3)c2c1C(=O)NCCO` has a growth at 10 µM of 93.9%.

The molecules below were run on NCI-H322M (assay: Growth inhibition of human NCI-H322M cells assessed as cell growth at 10 uM incubated for 48 hrs by sulforhodamine B assay relative to control). Conditions: read-out: Activity.
Type: functional
`Cc1oc2ncnc(Nc3ccccc3)c2c1C(=O)NCCO` gave a growth at 10 µM of 108%.

Each molecule was assayed on SF-268 (assay: Growth inhibition of human SF268 cells assessed as cell growth at 10 uM incubated for 48 hrs by sulforhodamine B assay relative to control). Conditions: SF-268, 48 h, read-out: Activity.
Type: functional
`Cc1oc2ncnc(Nc3ccccc3)c2c1C(=O)NCCO` showed a growth at 10 µM of 99.8%.

Each molecule was assayed on NCI-H23 (assay: Growth inhibition of human NCI-H23 cells assessed as cell growth at 10 uM incubated for 48 hrs by sulforhodamine B assay relative to control). Conditions: NCI-H23, 48 h, read-out: Activity.
Type: functional
With `Cc1oc2ncnc(Nc3ccccc3)c2c1C(=O)NCCO` the growth at 10 µM was 92%.

The molecules below were run on PC-3 (assay: Growth inhibition of human PC3 cells assessed as cell growth at 10 uM incubated for 48 hrs by sulforhodamine B assay relative to control). Conditions: PC-3, 48 h, read-out: Activity.
Type: functional
`Cc1oc2ncnc(Nc3ccccc3)c2c1C(=O)NCCO` gave a growth at 10 µM of 107%.

Each molecule was assayed on TK-10 (assay: Growth inhibition of human TK10 cells assessed as cell growth at 10 uM incubated for 48 hrs by sulforhodamine B assay relative to control). Conditions: TK-10, 48 h, read-out: Activity.
Type: functional
For `Cc1oc2ncnc(Nc3ccccc3)c2c1C(=O)NCCO`, the growth at 10 µM was 122%.

What follows are molecules tested on U-251 (assay: Growth inhibition of human U251 cells assessed as cell growth at 10 uM incubated for 48 hrs by sulforhodamine B assay relative to control). Conditions: U-251, 48 h, read-out: Activity.
Type: functional
`Cc1oc2ncnc(Nc3ccccc3)c2c1C(=O)NCCO` showed a growth at 10 µM of 102%.

The molecules below were run on A549 (assay: Growth inhibition of human A549/ATCC cells assessed as cell growth at 10 uM incubated for 48 hrs by sulforhodamine B assay relative to control). Conditions: A549, 48 h, read-out: Activity.
Type: functional
For `Cc1oc2ncnc(Nc3ccccc3)c2c1C(=O)NCCO`, the growth at 10 µM was 98.1%.

Each molecule was assayed on MDA-MB-231 (assay: Growth inhibition of human MDA-MB-231 cells assessed as cell growth at 10 uM incubated for 48 hrs by sulforhodamine B assay relative to control). Conditions: MDA-MB-231, 48 h, read-out: Activity.
Type: functional
With `Cc1oc2ncnc(Nc3ccccc3)c2c1C(=O)NCCO` the growth at 10 µM was 75%.

Each molecule was assayed on SW-620 (assay: Growth inhibition of human SW620 cells assessed as cell growth at 10 uM incubated for 48 hrs by sulforhodamine B assay relative to control). Conditions: SW-620, 48 h, read-out: Activity.
Type: functional
For `Cc1oc2ncnc(Nc3ccccc3)c2c1C(=O)NCCO`, the growth at 10 µM was 95.1%.

These molecules were tested on SF-295 (assay: Growth inhibition of human SF295 cells assessed as cell growth at 10 uM incubated for 48 hrs by sulforhodamine B assay relative to control). Conditions: SF-295, 48 h, read-out: Activity.
Type: functional
For `Cc1oc2ncnc(Nc3ccccc3)c2c1C(=O)NCCO`, the growth at 10 µM was 100%.

The molecules below were run on OVCAR-3 (assay: Growth inhibition of human OVCAR3 cells assessed as cell growth at 10 uM incubated for 48 hrs by sulforhodamine B assay relative to control). Conditions: OVCAR-3, 48 h, read-out: Activity.
Type: functional
Work on `Cc1oc2ncnc(Nc3ccccc3)c2c1C(=O)NCCO` yielded a growth at 10 µM of 102%.

The molecules below were run on Hs-578T (assay: Growth inhibition of human Hs 578T cells assessed as cell growth at 10 uM incubated for 48 hrs by sulforhodamine B assay relative to control). Conditions: read-out: Activity.
Type: functional
For `Cc1oc2ncnc(Nc3ccccc3)c2c1C(=O)NCCO`, the growth at 10 µM was 90.5%.

These molecules were tested on RXF 393 (assay: Growth inhibition of human RXF393 cells assessed as cell growth at 10 uM incubated for 48 hrs by sulforhodamine B assay relative to control). Conditions: RXF 393, 48 h, read-out: Activity.
Type: functional
`Cc1oc2ncnc(Nc3ccccc3)c2c1C(=O)NCCO` gave a growth at 10 µM of 104%.

What follows are molecules tested on SN12C (assay: Growth inhibition of human SN12C cells assessed as cell growth at 10 uM incubated for 48 hrs by sulforhodamine B assay relative to control). Conditions: read-out: Activity.
Type: functional
`Cc1oc2ncnc(Nc3ccccc3)c2c1C(=O)NCCO` showed a growth at 10 µM of 93.2%.

These molecules were tested on RPMI-8226 (assay: Growth inhibition of human RPMI8226 cells assessed as cell growth at 10 uM incubated for 48 hrs by sulforhodamine B assay relative to control). Conditions: RPMI-8226, 48 h, read-out: Activity.
Type: functional
For `Cc1oc2ncnc(Nc3ccccc3)c2c1C(=O)NCCO`, the growth at 10 µM was 94.8%.

The molecules below were run on EKVX (assay: Growth inhibition of human EKVX cells assessed as cell growth at 10 uM incubated for 48 hrs by sulforhodamine B assay relative to control). Conditions: read-out: Activity.
Type: functional
Work on `Cc1oc2ncnc(Nc3ccccc3)c2c1C(=O)NCCO` yielded a growth at 10 µM of 97.6%.
